Assay results taken from publication PMC4881598, “Novel Zinc(II) Complexes [Zn(atc-Et)2] and [Zn(atc-Ph)2]: In Vitro and in Vivo Antiproliferative Studies” (International Journal of Molecular Sciences, 2016).
Like-named read-outs stand apart in the source and are kept apart here.

Key:
[1] = test system: MRC-5 cells (healthy lung fibroblast); test: Cytotoxic analysis (IC50) of adherent cell lines, resazurin: MRC-5; assay type: cell-based; conditions: 24 h incubation, read-out: IC50 ± SD, MRC-5
Method: (§1) All adherent cell lines, including healthy lung fibroblast (MRC-5), hepatocellular carcinoma (HepG-2), cervix adenocarcinoma (HeLa), breast adenocarcinoma (MDA-MB-231), prostate carcinoma (DU 145) and suspended chronic myelogenous leukemia (K-562) cells, were cultured in a humidified atmosphere containing 5% CO2 at 37 °C. The cultures were maintained in Dulbecco's Modified Eagle Medium (DMEM) or Roswell Park Memorial Institute (RPMI) 1640 medium (Vitrocell®, Campinas, SP, Brazil) supplemented with 10% fetal bovine serum (FBS), 50 mg/L gentamicin sulfate, and 2 mg/L amphotericin B.
(§2) In these experiments, cells were collected in a solution of trypsin/ethylenediaminetetraacetic acid (EDTA) (Vitrocell®) and centrifuged (252× g for 5 min). The number of cells was counted using a Neubauer chamber (Celeromics, Valencia, Spain) after staining non-viable cells with 0.4% trypan blue solution (Sigma-Aldrich®) via the cell exclusion assay. Then, the cell concentration was adjusted to 7.5 × 10^4 cells/mL in DMEM for tumor cells and MRC-5 cells. Next, a 200 μL suspension was deposited into each well of a 96-well microplate to a cell density of 1.5 × 10^4 cells/well. The cells were incubated at 37 °C in an atmosphere of 5% CO2 for 24 h to allow the cells to attach to the plate. The coordination compounds were solubilized in DMSO to an initial concentration of 10,000 µg/mL. Test solutions of the complexes were prepared to obtain concentrations from 500 to 1.95 μg/mL. The diluted solutions were added to the cells after changing the medium to remove any non-adherent cells, and the cultures were incubated for an additional 24 h. The cytotoxicity of the complexes was determined after incubating the cells in 30 μL of resazurin for approximately 2 h. The measurement was performed using a Synergy H1 microplate reader (BioTek®, Winooski, VT, USA) with excitation and emission filters at wavelengths of 530 and 590 nm, respectively. The assays were performed in three independent experiments.

[2] = test system: HepG2 cells (hepatocellular carcinoma); test: Cytotoxic analysis (IC50) of adherent cell lines, resazurin: HepG2; assay type: cell-based; conditions: for IC50: HepG2 tumor cells, 24 h incubation, resazurin, read-out: IC50 ± SD, HepG2; for SI (selectivity index), HepG2: IC50 for MRC-5 cells / IC50 for HepG2 cells
Method: as §1, §2
(§3) The SI of the complexes was calculated as the ratio of the IC50 for healthy MRC-5 cells to the IC50 for tumor cells. […] Substances with SI values >3 are considered promising.

[3] = test system: HeLa cells (cervix adenocarcinoma); test: Cytotoxic analysis (IC50) of adherent cell lines, resazurin: HeLa; assay type: cell-based; conditions: for IC50: HeLa tumor cells, 24 h incubation, resazurin, read-out: IC50 ± SD, HeLa; for SI (selectivity index), HeLa: IC50 for MRC-5 cells / IC50 for HeLa cells
Method: as §1, §2, §3

[4] = test system: MDA-MB-231 cells (breast adenocarcinoma); test: Cytotoxic analysis (IC50) of adherent cell lines, resazurin: MDA-MB-231; assay type: cell-based; conditions: for IC50: MDA-MB-231 tumor cells, 24 h incubation, resazurin, read-out: IC50 ± SD, MDA-MB-231; for SI (selectivity index), MDA-MB-231: IC50 for MRC-5 cells / IC50 for MDA-MB-231 cells
Method: as §1, §2, §3

[5] = test system: K-562 cells (chronic myelogenous leukemia); test: Cytotoxic analysis (IC50) of suspended cells, resazurin: K-562; assay type: cell-based; conditions: for IC50: K-562 suspended tumor cells, 24 h incubation, resazurin, read-out: IC50 ± SD, K-562; for SI (selectivity index), K-562: IC50 for MRC-5 cells / IC50 for K-562 cells
Method: as §1
In these experiments, cells were centrifuged (252× g for 5 min), and the number of cells was counted using a Neubauer chamber after staining non-viable cells with 0.4% trypan blue solution (Sigma-Aldrich®) via the cell exclusion assay. Then, the cell concentration was adjusted to 2 × 10^5 cells/mL in RPMI 1640 medium. Next, 100 μL of the suspension was deposited into each well of a 96-well microplate to a final cell density of […] [35]. The complexes were dissolved in DMSO to an initial concentration of 10,000 μg/mL. Test solutions of the complexes were prepared to obtain concentrations from 500 to 1.95 μg/mL. The diluted solutions were added to the cells, and the cultures were incubated for 24 h. The cytotoxicity of the complexes was determined after incubating the cells in 30 μL of resazurin for approximately 5 h. The measurement was performed using a Synergy H1 microplate reader (BioTek®, Winooski, VT, USA) with excitation and emission filters at wavelengths of 530 and 590 nm, respectively. The assays were performed in three independent experiments.
as §3

[6] = test system: DU 145 cells (prostate carcinoma); test: Cytotoxic analysis (IC50) of adherent cell lines, resazurin: DU 145; assay type: cell-based; conditions: for IC50: DU 145 tumor cells, 24 h incubation, resazurin, read-out: IC50 ± SD, DU 145; for SI (selectivity index), DU 145: IC50 for MRC-5 cells / IC50 for DU 145 cells
Method: as §1, §2, §3

[7] = test system: BALB/c mice; test: Quantification of serum AST and ALT enzymatic activity levels; assay type: in vivo; conditions: ANOVA and Dunnett's test
Method: To analyze whether there were any biochemical changes in the liver of the animals, we quantified the serum AST and ALT enzymatic activity levels in mice after administration of the complexes via gavage before sacrificing, as described above. A total of 500 µL of blood was collected via the submandibular vein. The blood samples were placed in collection tubes, centrifuged at 1097.6× g for 15 min to separate the serum, and stored at −70 °C. The samples were analyzed on the day of collection.
Enzymatic activity measurements were performed using biochemical diagnostic kits from Labtest S.A. (Labtest S.A., Lagoa Santa, MG, Brazil).
Statistical analysis was performed using GraphPad Prism Version 1.5 software via ANOVA and Dunnett’s test, and p < 0.05 was established as the significance level.

[8] = test system: Artemia salina L.; test: Artemia salina L. toxicity assay; assay type: in vivo; conditions: ratio of LC50 values to cisplatin
Method: To determine toxicity of the Zn^II complexes to brine shrimp, 25 mg of egg (Natal, RN, Brazil) was incubated in a beaker (2000 mL) containing artificial salt water at a temperature ranging from 20 to 30 °C. The artificial salt water consisted of 23 g NaCl, 11 g MgCl2·6H2O, 4 g Na2SO4, 1.3 g CaCl2·H2O, and 0.7 g KCl in 1000 mL distilled water. The pH was adjusted to 9.0 using 5N NaOH to avoid risk of death to the Artemia larvae (nauplii) due to a low pH during incubation.
After 24 hours, 0.6 g of Saccharomyces cerevisiae was added to the beaker per liter of salt water to feed the nauplii; after the eggs were incubated for 48 h, the nauplii were extracted for the experiments.
A 120 µL suspension of 10-15 nauplii was added to each well of a 96-well microplate, including the control wells. The compounds were solubilized in DMSO at 15,000 µg/mL and serially diluted in a separate 96-well microplate. The tested concentrations ranged from 1500 to 5.85 µg/mL. After incubation for 24 h, the plates were examined under a Lupa binocular microscope (X3.0), and the numbers of live nauplii in each well were counted to determine the LC50 [21]. The assays were performed in three independent experiments.

[9] = test system: BALB/c mice; test: In vivo acute toxicity assay, single oral dose; conditions: single dose 1000 mg/kg body weight via gavage, 14 days, n = 6
Method: Female 16–20-week old BALB/c mice weighing 24–26 g were used after utilizing these animals for the bioavailability experiments. […] The mice were maintained in polycarbonate cages at 23 ± 2 °C, 56% ± 2% humidity at a 12-h light/dark cycle under specific-pathogen-free conditions (in a positive-pressure cabinet), and the animals were provided with food and water ad libitum [36].
The safety profile of the complexes to BALB/c mice was evaluated via acute toxicity assays according to protocols established by the OECD using the classical method to measure the acute toxicity (LD50) of a single oral dose (administered via gavage) of the complexes [26].
Each complex was suspended in a sunflower oil vehicle, and the vehicle was used as a control (control group). The complexes were administered as a single dose at 1000 mg/kg body weight via gavage (n = 6 animals/complex). […] The animals were monitored for 14 days, and behavioral parameters (Hippocratic screening) were evaluated.
At the end of the experiment, the animals were weighed, and blood was collected via the submandibular vein. Subsequently, the animals were euthanized in CO2 chambers, and their organs (heart, lungs, right and left kidneys, spleen and liver) were surgically removed, weighed and macroscopically analyzed. […]

[10] = In vivo oral bioavailability test, plasma metal quantified by ICP-OES / ICP-MS; conditions: BALB/c mice, 300 mg/Kg oral gavage
Method: Female 4–8-week old BALB/c mice weighing 15–20 g were purchased from the central animal facilities of Campinas State University (UNICAMP, Campinas, SP, Brazil). The mice were maintained in polycarbonate cages at 23 ± 2 °C, 56% ± 2% humidity at a 12 h light/dark cycle under specific pathogen-free conditions (in a positive-pressure cabinet), and the animals were provided with food and water ad libitum. […] The animals (n = 2 animals/complex) received a dose of 300 mg/Kg body weight via oral gavage. At 20 min, 1 h, 2 h, and 4 h after drug administration, blood was drawn from two animals via the retro-orbital veins, draining the submandibular vein and the face of the mice to the point at which the origins of the jugular vein join so that drops of blood exude from the point of penetration. The plasma was separated and stored at −70 °C for quantification.
The metal ion (Zn) concentration was quantified via ICP-OES using a Thermo Scientific Model 6300 system (Thermo Scientific®, San Diego, CA, USA). Samples (50 µL) were diluted 1:100 with a solution containing 0.01% (v/v) Triton X-100 and 0.5% (v/v) nitric acid. During the experiment, the recovery validation test was performed, and this test produced a result of 94%–104% recovery.
For digestion, 50 µL of plasma sample and 5950 µL of double-distilled 20% (v/v) nitric acid were used. The samples were digested in a microwave (Berghof speedwave D 72800, Goshen, NY, USA), reaching a temperature of 170 °C. During the experiment, the recovery validation test was performed, and this test produced a result of 95%–105% recovery.

[11] = Solubility in solvents and vehicle (qualitative); assay type: physicochemical
[12] = test system: Artemia salina L.; set-up: method as in Freitas et al. (2011) [25]; conditions: ref Freitas et al. (2011) [25]; read-out: LC50 against Artemia salina L.; cited from earlier work
[13] = Homo sapiens, MRC5, normal MRC-5 cells

Row | Compound | IC50 ([1]; normal MRC-5 cells) [µM] | IC50 [2] [µM] | IC50 [3] [µM] | IC50 [4] [µM] | IC50 [5] [µM] | IC50 [6] [µM] | SI (selectivity index), HepG2 [2] | SI (selectivity index), MDA-MB-231 [4] | SI (selectivity index), DU 145 [6] | IC50 [1, 13] [µM] | IC50 ([2]; Homo sapiens) [µM] | IC50 ([3]; Homo sapiens) [µM] | IC50 ([4]; Homo sapiens) [µM] | IC50 ([5]; Homo sapiens, K562) [µM] | IC50 ([6]; Homo sapiens) [µM] | SI (selectivity index), HeLa [3] | SI (selectivity index), K-562 [5] | also measured
1 | N.N.[Cl][Pt][Cl] [Cisplatin, reference compound] | 46.2 ± 4.9 | 60.3 ± 15.1 | 85 ± 10.1 | 143 ± 3.3 | 75.4 ± 6 | 56.5 ± 6.8 | – | – | – | – | – | – | – | – | – | – | – | serum AST and ALT enzymatic activity levels versus control group [7]: no significant difference
2 | CC(=NN=C([S-])Nc1ccccc1)c1ccccn1.CC(=NN=C([S-])Nc1ccccc1)c1ccccn1.[Zn+2] [Complex 2, [Zn(atc-Ph)2]] | – | – | – | – | – | – | 3.6 | 2.2 | 0.3 | – | – | – | – | – | – | – | – | fold lower toxicity in Artemia salina L. relative to cisplatin [8]: 5.7 fold; mortality [9]: no mortality; maximum plasma concentration (Cmax) [10]: 1191.95 ng/mL; plasma concentration at 20 min ([10]; 20 min, Zn by ICP-OES, relative to control sample): 727.83 ng/mL; plasma concentration at 1 h ([10]; 1 h, Zn by ICP-OES, relative to control sample): 1023.55 ng/mL; plasma concentration at 2 h ([10]; 2 h, Zn by ICP-OES, relative to control sample): 1191.95 ng/mL; plasma concentration at 4 h ([10]; 4 h, Zn by ICP-OES, relative to control sample): 624.70 ng/mL; solubility in organic solvents [11]: reasonably soluble only in dimethyl sulfoxide (DMSO)
3 | CCNC(=S)N/N=C(\C)c1ccccn1 [Hatc-Et] | – | – | – | – | – | – | – | – | – | 9 | 553 ± 45 | 746 ± 23.2 | 904 ± 65.3 | 420.3 ± 3.7 | 532 ± 12.6 | – | – | –
4 | C/C(=N\NC(=S)Nc1ccccc1)c1ccccn1 [Hatc-Ph] | – | – | – | – | – | – | 0.2 | 0.3 | 0.5 | 7.4 | 36.3 ± 1.5 | 25 ± 0.2 | 24.3 ± 5 | 11.1 ± 0.6 | 15.1 ± 2.1 | 0.3 | 0.7 | –
5 | O.O.O.O.O.O.[Cl][Zn][Cl] [ZnCl2·6H2O] | 240 ± 16.8 | 698 ± 10.9 | 864 ± 14 | 475 ± 64.3 | 1090 ± 73.8 | 383 ± 7.8 | 0.3 | 0.5 | 0.6 | – | – | – | – | – | – | 0.3 | 0.2 | –
6 | perchlorate compound of bis(isoniazid) Zn^II hexahydrate | – | – | – | – | – | – | – | – | – | – | – | – | – | – | – | – | – | LC50 [12]: 268 µM
